{
  "source": "patent US20100081200A1",
  "about": "“FORMULATIONS AND METHODS FOR CULTURING STEM CELLS” (priority 2007, published 2010)",
  "key": {"[1]": {"tested_on": "hESCs (HS401 cell line)", "test": "Lipids and lipid derivatives: visual evaluation of morphology, size and thickness of undifferentiated colonies", "assay_type": "cell-based, human", "details": "for morphology of the undifferentiated colonies (in words): in both hES medium and the present culture medium", "text": "(§1) FIGS. 9A-9B show the morphology and differentiation stage of hESCs cultured in the present culture medium and in the presence of lipids and lipid derivatives. UD, PD and DIFF represent undifferentiated, partly differentiated and differentiated hESC colonies, respectively. FIG. 9A) HS401 cell line cultured in the present culture medium supplemented with different lipids and lipid derivatives. FIG. 9B) HS401 cell line cultured in control hES medium supplemented with different lipids and lipid derivatives.\nVarious lipids and lipid derivatives were tested in the culture medium (RegES) according to some embodiments of the present invention and in the conventional hES culture medium containing KO-SR (Knockout serum replacement, Invitrogen). General morphology, as well as the size and thickness of the undifferentiated colonies were evaluated before each passaging based on visual perceptions (Table 7)."}, "[2]": {"tested_on": "hESC colonies (HS401 cell line)", "test": "Lipids and lipid derivatives: classification of hESC colonies as undifferentiated, partly differentiated, differentiated", "assay_type": "cell-based, human", "text": "as §1\nFurthermore, the hESC colonies were classified into three categories; undifferentiated, partly differentiated and differentiated. Number of each colony type was calculated before each passaging. Later, a percentage value for each colony type of the total amount of colonies was calculated (FIG. 9)."}, "[3]": {"details": "in the present culture medium, compared to control hES or Albumax-RegES medium"}, "[4]": {"details": "in hES culture medium, compared to control hES medium"}},
  "data": [
    {"compound": "CCCCC/C=C\\C/C=C\\C/C=C\\CCCCC(=O)O", "note": "[Gamma-linoleic acid]", "values": [
      {"measurement": "Morphology", "setting": "[1]; RegES medium, 2.5 μg/ml", "result": "− (excess differentiation of the colonies, poor morphology)"},
      {"measurement": "Morphology", "setting": "[1]; hES medium, 2.5 μg/ml", "result": "++"}
    ]},
    {"compound": "CCCCC[C@H](O)/C=C/[C@@H]1[C@@H](C/C=C\\CCCC(=O)O)[C@@H](O)C[C@H]1O", "note": "[Prostaglandin F2]", "values": [
      {"measurement": "Morphology", "setting": "[1]; RegES medium, 50 ng/ml", "result": "++"},
      {"measurement": "Morphology", "setting": "[1]; hES medium, 50 ng/ml", "result": "− (excess differentiation of the colonies, poor morphology)"},
      {"measurement": "morphology (in words)", "setting": "[1]; in hES culture medium", "result": "poor morphology and/or excess differentiation"},
      {"measurement": "morphology (in words)", "setting": "[1]; in the present culture medium", "result": "satisfying morphology"}
    ]},
    {"compound": "CCCCC[C@H](O)/C=C/[C@H]1[C@H](O)CC(=O)[C@@H]1C/C=C\\CCCC(=O)O", "note": "[Prostaglandin E2]", "values": [
      {"measurement": "Morphology", "setting": "[1]; RegES medium, 50 ng/ml", "result": "− (excess differentiation of the colonies, poor morphology)"},
      {"measurement": "Morphology", "setting": "[1]; hES medium, 50 ng/ml", "result": "+ (poor morphology, uneven edges in the colonies, thin and/or small colonies)"}
    ]},
    {"compound": "Lysophosphatidylcholine", "values": [
      {"measurement": "Morphology", "setting": "[1]; RegES medium, 5 μg/ml", "result": "++"},
      {"measurement": "Morphology", "setting": "[1]; hES medium, 5 μg/ml", "result": "− (excess differentiation of the colonies, poor morphology)"},
      {"measurement": "morphology (in words)", "setting": "[1]; in hES culture medium", "result": "poor morphology and/or excess differentiation"},
      {"measurement": "morphology (in words)", "setting": "[1]; in the present culture medium", "result": "satisfying morphology"}
    ]},
    {"compound": "CCCCCC/C=C\\CCCCCCCC(=O)O", "note": "[Palmitoleic acid]", "values": [
      {"measurement": "morphology of the undifferentiated colonies (in words)", "setting": "[1]", "result": "improved the morphology"},
      {"measurement": "number of undifferentiated and differentiated colonies", "setting": "[2]; [3]", "result": "number of undifferentiated colonies increased and the number of differentiated colonies decreased"}
    ]},
    {"compound": "Phosphatidylcholine", "values": [
      {"measurement": "Morphology", "setting": "[1]; RegES medium, 2.5 μg/ml", "result": "− (excess differentiation of the colonies, poor morphology)"},
      {"measurement": "Morphology", "setting": "[1]; hES medium, 2.5 μg/ml", "result": "++"},
      {"measurement": "number of undifferentiated and differentiated colonies", "setting": "[2]; [4]", "result": "number of undifferentiated colonies increased and the number of differentiated colonies decreased"}
    ]},
    {"compound": "CC(C)NCC(O)c1ccc(O)c(O)c1", "note": "(racemic) [DL-isoproterenol, reference compound]", "values": [
      {"measurement": "Morphology", "setting": "[1]; RegES medium, 0.1 mg/ml", "result": "++"},
      {"measurement": "Morphology", "setting": "[1]; hES medium, 0.1 mg/ml", "result": "+ (poor morphology, uneven edges in the colonies, thin and/or small colonies)"},
      {"measurement": "morphology (in words)", "setting": "[1]; in hES culture medium", "result": "poor morphology and/or excess differentiation"},
      {"measurement": "morphology (in words)", "setting": "[1]; in the present culture medium", "result": "satisfying morphology"},
      {"measurement": "number of undifferentiated and differentiated colonies", "setting": "[2]; [3]", "result": "number of undifferentiated colonies increased and the number of differentiated colonies decreased"}
    ]},
    {"compound": "Phosphatidylethanolamine", "values": [
      {"measurement": "Morphology", "setting": "[1]; RegES medium, 5 μg/ml", "result": "++"},
      {"measurement": "Morphology", "setting": "[1]; hES medium, 5 μg/ml", "result": "− (excess differentiation of the colonies, poor morphology)"},
      {"measurement": "morphology (in words)", "setting": "[1]; in hES culture medium", "result": "poor morphology and/or excess differentiation"},
      {"measurement": "morphology (in words)", "setting": "[1]; in the present culture medium", "result": "satisfying morphology"}
    ]},
    {"compound": "CCCCCCCCCCCCCCCCCC(=O)O", "note": "[Stearic acid]", "values": [
      {"measurement": "morphology (in words)", "setting": "[1]; in hES culture medium", "result": "poor morphology and/or excess differentiation"},
      {"measurement": "morphology (in words)", "setting": "[1]; in the present culture medium", "result": "satisfying morphology"},
      {"measurement": "number of undifferentiated and differentiated colonies", "setting": "[2]; [3]", "result": "number of undifferentiated colonies increased and the number of differentiated colonies decreased"}
    ]},
    {"compound": "Conjugated linoleic acid", "values": [
      {"measurement": "Morphology", "setting": "[1]; RegES medium, 5 μg/ml", "result": "++"},
      {"measurement": "Morphology", "setting": "[1]; hES medium, 5 μg/ml", "result": "+++ (nice morphology, even, thick and big colonies)"},
      {"measurement": "morphology of the undifferentiated colonies (in words)", "setting": "[1]", "result": "improved the morphology"},
      {"measurement": "number of undifferentiated and differentiated colonies", "setting": "[2]; [4]", "result": "number of undifferentiated colonies increased and the number of differentiated colonies decreased"},
      {"measurement": "number of undifferentiated and differentiated colonies", "setting": "[2]; [3]", "result": "number of undifferentiated colonies increased and the number of differentiated colonies decreased"}
    ]},
    {"compound": "CC/C=C\\C/C=C\\C/C=C\\CCCCCCCC(=O)O", "note": "[Alfa-linoleic acid]", "values": [
      {"measurement": "Morphology", "setting": "[1]; RegES medium, 5 μg/ml", "result": "−/− (excess differentiation of the colonies, poor morphology)"},
      {"measurement": "Morphology", "setting": "[1]; hES medium, 5 μg/ml", "result": "−/− (excess differentiation of the colonies, poor morphology)"}
    ]},
    {"compound": "CCCCC/C=C\\C/C=C\\C/C=C\\C/C=C\\CCCC(=O)O", "note": "[Arachidonic acid]", "values": [
      {"measurement": "number of undifferentiated and differentiated colonies", "setting": "[2]; [4]", "result": "number of undifferentiated colonies increased and the number of differentiated colonies decreased"}
    ]},
    {"compound": "CC(C)CCC[C@@H](C)[C@H]1CC[C@H]2[C@@H]3CC=C4C[C@@H](O)CC[C@]4(C)[C@H]3CC[C@]12C", "note": "[Cholesterol]", "values": [
      {"measurement": "number of undifferentiated and differentiated colonies", "setting": "[2]; [4]", "result": "number of undifferentiated colonies increased and the number of differentiated colonies decreased"}
    ]},
    {"compound": "CCCCC/C=C\\C/C=C\\CCCCCCCC(=O)O", "note": "[Linoleic acid]", "values": [
      {"measurement": "morphology of the undifferentiated colonies (in words)", "setting": "[1]", "result": "improved the morphology"},
      {"measurement": "number of undifferentiated and differentiated colonies", "setting": "[2]; [3]", "result": "number of undifferentiated colonies increased and the number of differentiated colonies decreased"}
    ]}
  ]
}
